According to patent US20220204479A1, “PYRIMIDINE COMPOUND AND PREPARATION METHOD THEREFOR” (Wuhan Humanwell Innovative Drug Research And Development …, priority 2019, published 2022):
In brackets after ≈: the same amount, converted by molar mass. Read-outs that look alike come from different tables or passages of the source.

Assays:
autotaxin (ATX) enzyme = target: T1, autotaxin (ATX) enzyme (Homo sapiens, UniProt Q13822); test: Autotaxin (ATX) enzyme activity inhibition test (Cayman Autotaxin Inhibitor Screening Assay Kit); type: biochemical; conditions: 37° C., 30 min, OD405, read-out: IC50, inhibitory effect on ATX enzyme activity
T1 construct: purchased Cayman 700580
Description: The inhibitory effects of the compounds on the autotaxin enzyme were detected using the Autotaxin Inhibitor Screening Assay Kit (Cayman, 700580). […] Subsequently, the 8 concentrations were diluted with Autotaxin Assay buffer (1×) provided in the kit into 19× compound working solutions (DMSO content was 1.9%). The Autotaxin Assay Reagent (10×) was taken out and diluted by 10 times with Autotaxin Assay Buffer (1×). The Autotaxin Substrate was taken out, dissolved by adding 1.2 mL of Autotaxin Assay Buffer (1×), mixed evenly and let stand by at room temperature. In a 96-well plate, 150 μL of Autotaxin Assay Buffer (1×), 10 μL of the prepared and diluted 19× compound working solution, 10 μL of Autotaxin Assay Reagent (1×), and 20 μL of the dissolved Autotaxin Substrate were added to each of the wells for each concentration, and homogenously mixed. The 96-well plate was shaken in a constant temperature shaker at 37° C. and incubated in the dark for 30 min, and then the plate was taken out and placed on a microplate reader to read OD405.

ATX enzyme in rat plasma = target: T2, ATX enzyme in rat plasma (Rattus norvegicus, UniProt Q64610); test: Inhibition of activity of ATX enzyme in rat plasma (LPA18:2 formation, LC-MSMS); type: biochemical; conditions: for inhibitory activity on ATX enzyme in rat plasma compared with control compounds 1 and 2: comparison in words
T2 construct: Whole blood was collected from rats and anticoagulated with heparin; from tissue; host or cells: rat plasma (heparin)
Description: Whole blood was collected from rats and anticoagulated with heparin. The blood collection tubes were centrifuged at 3,000 rpm for 15 min, and the plasma was placed on ice for use.
The compound was serially diluted with DMSO: 30% ACN=1:19 according to the conventional concentration requirements, and then placed on ice. 147 μL of plasma, which was placed on ice, was added to a 96-well plate, and then 3 μL of each of the gradient solutions of the compound (finally 1[…] DMSO) was added. A group containing none of the compounds was set as the positive group. The 96-well plate was mixed uniformly, and incubated at 37° C. for 3 h. In addition, a blank group was also provided. At the beginning of the incubation, the plasma of blank group was added to with excessive acetonitrile containing the internal standard LPA17: 0 to precipitate the plasma protein, vortexed to mix, and stored at 4° C. The blank group was provided to determine the baseline concentration of endogenous LPA.
A peak area of LPA18: 2 and a peak area of internal standard LPA17: 0 were detected using LC-MSMS mass spectrometry.
(§1) A ratio of the peak area of LPA18: 2 to the peak area of internal standard LPA17: 0 was calculated, and a formation inhibition rate of LPA18: 2 was calculated according to the following formula:
(§2) Inhibition rate (%)=100−(compound group with different concentrations−blank group)/(positive group−blank group)*100
According to the inhibition rates of different concentrations of the compound, the IC50 value of the compound for inhibiting activity of ATX enzyme in rat plasma, was calculated.

[1] = target: T3, ATX enzyme in human plasma (Homo sapiens, UniProt Q13822); test: Inhibition of activity of ATX enzyme in human plasma (LPA18:2 formation, LC-MSMS); type: biochemical; conditions: for IC50: human plasma, 37° C., 3 h, LPA18:2 formation, read-out: IC50, inhibitory effect on activity of ATX enzyme in human plasma
T3 construct: Whole blood was collected from healthy volunteers and anticoagulated with heparin; from tissue; host or cells: human plasma (heparin) from healthy volunteers
Description: Whole blood was collected from healthy volunteers and anticoagulated with heparin. The blood collection tubes were centrifuged at 3,000 rpm for 10 min, and the plasma was taken and stored at −80° C. for use.
The compound was serially diluted with DMSO according to the conventional concentration requirements, then 3 μL of each of the diluted compound solutions was added to a 96-well plate, and 147 μL of PBS was added to each well containing 3 μL of the compound solution. After mixing homogenously, 50 μL of the mixture was taken out and added to a new 96-well plate. The human plasma was taken out from the −80° C. refrigerator and thawed through rapid shaking in a 37° C. water bath. 50 μL of the human plasma was taken and added to the 96-well plate containing 50 μL of the diluted compound (the final system contained 1% DMSO). The group without the compound was set as the positive group. The 96-well plate was shaken and mixed uniformly, and incubated at 37° C. for 3 h. A blank group was also provided, and the plasma of the blank group was stored at −80° C. The blank group is provided to determine the baseline concentration of endogenous LPA.
After the incubation was finished, the blank group was thawed on ice and transferred to an incubation plate. Excess acetonitrile containing the internal standard LPA17: 0 was added to the incubation plate to precipitate the plasma protein. After vortex centrifugation, the supernatant was taken and diluted, and a peak area of LPA18: 2 and a peak area of internal standard LPA17: 0 were detected using LC-MSMS mass spectrometry.
as §1, §2
According to the inhibition rates of different concentrations of the compound, the IC50 value of the compound for inhibiting activity of ATX enzyme in human plasma was calculated.

[2] = Thermodynamic solubility test; type: physicochemical; conditions: thermodynamic from solid
Description: The compound was accurately weighed, and the prepared phosphate buffer (pH 7.4), FeSSIF solution (pH 5.8) and FaSSGF solution (pH 1.6) were added to prepare a solution with a concentration of 4 mg/mL, which was shaken at 1,000 rpm for 1 hour, and then incubated overnight at room temperature. After the incubation, the solution was centrifuged at 12,000 rpm for 10 min to remove undissolved particles, and the supernatant was transferred to a new centrifuge tube. The supernatant was diluted appropriately, then added with an acetonitrile solution containing the internal standard, and quantified using a standard curve prepared with the same matrix.

[3] = Pharmacokinetic test in rats; type: in vivo; conditions: Sprague-Dawley, rat, plasma, male SD rats, oral gavage 10 mg/kg
Description: (§3) For the pharmacokinetic test of rats, 3 male SD rats (180-240 g) were used, and fasted overnight. The rats were orally administered by gavage (10 mg/kg). […] The blood samples were centrifuged at 8,000 rpm at 4° C. for 6 min, and plasma was collected and stored at −20° C. The plasma at each time point was taken and added with an acetonitrile solution containing internal standard in 3 to 5 times the amount, vortexed and mixed for 1 min, and centrifuged at 13,000 rpm at 4° C. for 10 min. The supernatant was collected, added with water in 3 times the amount, and mixed. An appropriate amount of the mixture was taken for LC-MS/MS analysis. The main pharmacokinetic parameters were analyzed using WinNonlin 7.0 software with non-compartmental model.

[4] = Pharmacokinetic test in canines; type: in vivo; conditions: dog, plasma; male beagle dogs, oral gavage 5 mg/kg
Description: as §3
For the pharmacokinetics test of canines, 3 male beagle dogs (8 to 10 kg) were used, and fasted overnight. The dogs were orally administered by gavage (5 mg/kg). The rest of the operation is the same as the pharmacokinetic test in rats.

[5] = Human liver microsome stability test; conditions: human liver microsomes; for Remaining percentage (%) of compound after incubation for 30 min: NADPH, 37° C.; for half-life at 1 µM: human
Description: The human liver microsome stability test was performed by incubating the compound and human liver microsomes in vitro for detection. First, the test compound was prepared into a 10 mM stock solution in DMSO solvent, and then the compound was diluted to 0.5 mM with acetonitrile. Human liver microsomes (Corning) were diluted with PBS and prepared as a microsome/buffer solution, which was used to dilute the 0.5 mM compound solution into a working solution. […] A deep-well multi-well plate was taken, 30 μL of the working solution and 15 μL of pre-warmed NADPH solution (6 mM) were sequentially added to each well to initiate a reaction, and the reaction was incubated at 37° C. […] After centrifugation, the supernatant was collected, and added with purified water in a ratio of 1:1 to perform LC-MS/MS detection. […] T1/2 was calculated by using Excel.

[6] = rat plasma, 37° C., 3 h, LPA18:2 formation, read-out: IC50, inhibitory effect on activity of ATX enzyme in rat plasma
[7] = FaSSGF solution, fassgf or other biorelevant, FaSSGF pH 1.6, overnight at room temperature, read-out: Solubility, FaSSGF (pH 1.6)
[8] = FeSSIF solution, FeSSIF pH 5.8, overnight at room temperature, read-out: Solubility, FeSSIF (pH 5.8)
[9] = phosphate buffer (PBS), aqueous buffer, PBS pH 7.4, overnight at room temperature, read-out: Solubility, PBS (pH 7.4)

| SMILES | IC50 (autotaxin (ATX) enzyme) [nM] | IC50 (ATX enzyme in rat plasma; [6]) [nM] | IC50 [1] [nM] | solubility [2, 7] [µg/mL] | solubility [2, 9] [µg/mL] | other results |
| --- | --- | --- | --- | --- | --- | --- |
| O=C(c1cnc(NC2Cc3cc(F)c(F)cc3C2)nc1)N1CCC(COCc2c[nH]nn2)CC1 [Compound I-8, (4-(((1H-1,2,3-triazol-4-yl)methoxy)methyl)piperidin-1-yl)(2-((5,6-difluoro-2,3-dihydro-1H-inden-2-yl)amino)pyrimidin-5-yl)methanone] | 2.04 | 136 |  |  |  |  |
| CC1CC(COCc2c[nH]nn2)CCN1C(=O)c1cnc(NC2Cc3ccccc3C2)nc1 (centres unmarked) [Compound I-5, (4-(((1H-1,2,3-triazol-4-yl)methoxy)methyl)-2-methylpiperidin-1-yl)(2-((2,3-dihydro-1H-inden-2-yl)amino)pyrimidin-5-yl)methanone] | 1.29 | 10.7 | 30.9 | 448 (≈ 1000 µM) | 129 (≈ 288 µM) | inhibitory activity on ATX enzyme in rat plasma compared with control compounds 1 and 2 (ATX enzyme in rat plasma): higher inhibitory activity on ATX enzyme in rat plasma than the control compounds 1 and 2; solubility [2, 8]: 317 µg/mL (≈ 708 µM) |
| CCc1nc2c(C)cc(N3CCN(CC(=O)N4CC(O)C4)CC3)cn2c1N(C)c1nc(-c2ccc(F)cc2)c(C#N)s1 [Control compound 2, reference compound] |  |  |  |  |  | IC50 (ATX enzyme in rat plasma): 413 nM; Tmax [3]: 30 min; AUC(0-t) ([3]; read-out: AUC0-t): 2570 ng·h/mL; Cmax ([3]; read-out: Cmax): 582 ng/mL; AUC(0-t) [4]: 14200 ng·h/mL; Cmax [4]: 2100 ng/mL; Tmax [4]: 2 h; Remaining percentage (%) of compound after incubation for 30 min [5]: 24.8%; half-life at 1 µM [5]: 16 min |
| CC(OCc1c[nH]nn1)C1CCN(C(=O)c2cnc(NC3Cc4ccccc4C3)nc2)CC1 (centres unmarked) [Compound I-3, (4-(1-((1H-1,2,3-triazol-4-yl)methoxy)ethyl)piperidin-1-yl)(2-((2,3-dihydro-TH-inden-2-yl)amino)pyrimidin-5-yl)methanone] | 6.71 |  | 42.1 |  |  |  |
| CC(OCC1CCN(C(=O)c2cnc(NC3Cc4ccccc4C3)nc2)CC1)c1cn[nH]n1 (centres unmarked) [Compound I-2, (4-((1-(2H-1,2,3-triazol-4-yl)ethoxy)methyl)piperidin-1-yl)(2-((2,3-dihydro-1H-inden-2-yl)amino)pyrimidin-5-yl)methanone] | 3.39 |  | 24.7 |  |  | Remaining percentage (%) of compound after incubation for 30 min [5]: 39.65%; half-life at 1 µM [5]: 24 min |
| O=C(c1cnc(NC2Cc3ccc(F)cc3C2)nc1)N1CCC(COCc2c[nH]nn2)CC1 (centres unmarked) [Compound I-7, (4-(((1H-1,2,3-triazol-4-yl)methoxy)methyl)piperidin-1-yl)(2-((5-fluoro-2,3-dihydro-1H-inden-2-yl)amino)pyrimidin-5-yl)methanone] | 1.16 | 14.7 | 14.6 |  |  |  |
| O=C(c1cnc(NC2Cc3ccccc3C2)nc1)N1CCC(COCc2c[nH]nn2)C(F)C1 (centres unmarked) [Compound I-6, (4-(((1H-1,2,3-triazol-4-yl)methoxy)methyl)-3-fluoropiperidin-1-yl)(2-((2,3-dihydro-1H-inden-2-yl)amino)pyrimidin-5-yl)methanone] | 1.43 | 22.9 | 41.2 | 165 (≈ 366 µM) | 18.6 (≈ 41.2 µM) | solubility [2, 8]: 49 µg/mL (≈ 109 µM) |
| CC1CN(C(=O)c2cnc(NC3Cc4ccccc4C3)nc2)CCC1COCc1c[nH]nn1 (centres unmarked) [Compound I-4, (4-(((1H-1,2,3-triazol-4-yl)methoxy)methyl)-3-methylpiperidin-1-yl)(2-((2,3-dihydro-1H-inden-2-yl)amino)pyrimidin-5-yl)methanone] |  | 32.3 |  | 332 (≈ 741 µM) | 147 (≈ 329 µM) |  |
| O=C(c1cnc(NC2Cc3ccc(F)cc3C2)nc1)N1CC2(CC(OCc3c[nH]nn3)C2)C1 (centres unmarked) [Compound I-10, (6-((1H-1,2,3-triazol-4-yl)methoxy)-2-azaspiro[3.3]heptan-2-yl)(2-((5-fluoro-2,3-dihydro-1H-inden-2-yl)amino)pyrimidin-5-yl)methanone] | 1.08 | 4.8 | 11.8 |  |  | inhibitory effect on ATX enzyme in human plasma compared with control compounds 1 and 2 ([1]; comparison in words): higher inhibitory effect on ATX enzyme in human plasma than the control compounds 1 and 2; inhibitory activity on ATX enzyme in rat plasma compared with control compounds 1 and 2 (ATX enzyme in rat plasma): higher inhibitory activity on ATX enzyme in rat plasma than the control compounds 1 and 2 |
